# Measurements reported in patent EP4817688A2, “DEGRADING PKCß1 TO TREAT CANCER” (Mayo Foundation for Medical Education and Research, priority 2020, dated 2022).
# pIC50: −log10 of the molar value. Where “and” joins values, the source holds several entries; their conditions need not be identical. Equal values may be shown once. Read-outs that look alike come from different tables or passages of the source.
# Experiments:
# [1] = system: PKCβ1, E2F1, and Cyclin D1; assay: western blot in BT549 and MDAMB436 cells (Example 6); type: cell-based; conditions: 1 µM, 24, 48, and 72 hours
# Procedure: TNBC BT549 and MDAMB436 cells were cultured in phenol-red free DMEM/F12 medium supplemented with 10% fetal bovine serum (FBS) and 1% AA. On day 1, cells were plated at a density of 2 x 10^5 BT549 cells or 4 x 10^5 MDAMB436 cells in a 6-well plate (two wells per treatment). The next day, cells were treated with DMSO, 1 µM Pr-9 (positive control), 1 µM Pr-9-1, 1 µM Pr-9-4, or 1 µM ENDX (negative control). Radioimmunoprecipitation Assay (RIPA) protein lysates were collected 24, 48, and 72 hours after treatment.
# For western blot analysis, 25 µg of protein lysates were run on Criterion precast 10% Bis-Tris gel, transferred to PVDF membrane, incubated in TBST-5% milk for one hour, and then incubated overnight with PKCβ1 (SC8049, mouse, 1:200), E2F1 (SC251, mouse, 1:250), Cyclin D1 (CS2978, rabbit, 1:1000), or Actin (Sigma A2228, mouse, 1:10,000 or CS8457, rabbit, 1:2000) primary antibodies in TBST-5% BSA solution. Membranes were washed in TBS-T, incubated for one-hour in HRP-linked anti-rabbit or anti-mouse secondary antibodies in TBST-5% milk, and washed in TBS-T. Bands were developed using west-pico or west-femto chemiluminescent substrate reagents.
# [2] = system: Rb-proficient MDAMB231 and Rb-deficient BT549 and MDAMB436 cells; assay: crystal violet (CV) proliferation assay, TNBC cells (text statements covering several lines); type: cell-based; conditions: MDAMB231 and BT549 cells (FIG. 4A and TABLE 1)
# Procedure: (§1) Cell proliferation rates were determined using crystal violet assays. One thousand cells per well were plated in 96 well tissue culture plates and treated the following day with a bifunctional compound or control for 7 days in replicates of 8. Cells were fixed with 25% glutaraldehyde for 10 minutes with shaking, washed 5 times with distilled water, stained with a 1% crystal violet solution (solubilized in 25% methanol) for 10 minutes, washed again 5 times and allowed to dry. De-staining was performed using […] sodium citrate in 50% ethanol followed by quantification using a 96 well spectrophotometer set at an absorbance of 550 nm.
# MDAMB231 cells = assay: crystal violet (CV) proliferation assay, MDAMB231; type: cell-based; conditions: Homo sapiens, MDA-MB-231, MDAMB231 (PKCβ1^high, Rb^positive) 2000 cells
# Procedure: as §1
# BT549 cells = assay: crystal violet (CV) proliferation assay, BT549; type: cell-based; conditions: Homo sapiens, BT-549, BT549 (PKCβ1^high, Rb^regative) 2000 cells
# Procedure: as §1
# [3] = pharmacokinetics in female CD1 mice, plasma by UPLC-MS/MS; type: in vivo; conditions: for Tmax: read-out: time of peak plasma concentration (converted); for half-life: read-out: terminal half-life (converted); for Concentration ENDX PROTAC 9: listed as ENDX PROTAC 9, 1 mg/kg
# Procedure: ENDX PROTAC 7 and PROTAC 9 pharmacokinetics were characterized in female CD1 mice. Blood samples were collected from mice anesthetized under isoflurane via retro-orbital eye bleed into tubes containing EDTA and immediately chilled on ice. NaF was added to the EDTA collection tubes to help stabilize the drug in whole blood for the second IV and IP studies with ENDX PROTAC 9, and for the IV and oral studies with PROTAC 7. Plasma and red blood cells were separated immediately by centrifugation in a refrigerated centrifuge at 4°C. The plasma was transferred to a separate tube and immediately frozen at -20°C.
# For IV dosing, ENDX PROTAC 9 was dissolved in 10% DMSO, 10% PEG 400, and 80% normal saline for a final concentration of 0.2 mg/mL ENDX PROTAC 9 for the 1 mg/kg IV doses. ENDX PROAC 7 was dissolved in 15% DMSO, 9.44% PEG400, and 55% normal saline for a final concentration of 0.19 mg/mL for the 1 mg/kg IV doses. Blood samples (3 mice per time-point) were collected 5 minutes, 15 minutes, 0.5 hour, 1 hour, 2 hours, 4 hours, 8 hours, and 24 hours after administration of the ENDX PROTAC. […] For oral dosing, ENDX PROTAC 9 (10 mg/kg) and ENDX PROTAC 7 (10 mg/kg) were suspended in 1 mM ascorbic acid:PEG400, 1:1 v/v for a final concentration of 1.0 mg/mL ENDX PROTAC. Blood samples (three mice per time-point) were collected 15 minutes, 0.5 hour, 1 hour, 2 hours, 4 hours, 6 hours, 8 hours, and 24 hours after administering the ENDX PROTAC. For I.P. dosing, ENDX PROTAC 9 (4 mg/kg) was prepared in 1 mM ascorbic acid:PEG400, 1:1 v/v for a final concentration of 0.4 mg/mL ENDX PROTAC 9. Blood samples (three mice per time-point) were collected 15 minutes, 0.5 hour, 1 hour, 2 hours, 4 hours, 6 hours, 8 hours, and 24 hours after administration. Plasma concentrations of ENDX PROTAC 7 and 9 were measured using UPLC-MS/MS.
# [4] = mouse, plasma, iv, 1 mg/kg, I.V. 1 mg/kg, first study without NaF
# [5] = mouse, plasma, iv, 1 mg/kg, I.V. 1 mg/kg, second study with NaF
smiles,measurement,setting,value
"CCC(=C(c1ccc(O)cc1)c1ccc(OCCN(C)C(=O)COCCOCCNC(=O)Cc2ccc3c(c2)CN(C2CCC(=O)NC2=O)C3=O)cc1)c1ccccc1 (centres unmarked) [TC-Pr-009, 2-[2-(2-2-[2-(2,6-dioxopiperidin-3-yl)-1-oxo-2,3-dihydro-1H-isoindol-5-yl]acetamidoethoxy)ethoxy]-N-(2-4-[1-(4-hydroxyphenyl)-2-phenylbut-1-en-1-yl]phenoxyethyl)-N-methylacetamide]",PKCβ1 protein levels,[1],altered to varying extent
same,protein levels of E2F1 and Cyclin D1,[1]; listed as Pr-9,clearly reduced
same,apoptosis,[2],induced apoptosis
same,pIC50,MDAMB231 cells,6.88
same,pIC50,BT549 cells,7.17
same,stability in whole blood,[3]; inferred from IV studies with and without NaF,unstable in whole blood
same,Cmax,"[3]; mouse, plasma, ip, 4 mg/kg, I.P. 4 mg/kg, read-out: peak plasma concentration",135 ng/mL
same,bioavailability,"[3]; mouse, plasma, ip, I.P. 4 mg/kg, read-out: bioavailability of the I.P. dose",225%
same,Tmax,"[3]; mouse, plasma, ip, I.P. 4 mg/kg",30 min
same,clearance,[3]; [4],730 mL/min/kg
same,half-life,[3]; [4],60 min
same,Cmax,"[3]; mouse, plasma, iv, 1 mg/kg, I.V. 1 mg/kg, samples collected without added NaF, read-out: peak plasma concentration",47.2 ng/mL
same,clearance,[3]; [5],478 mL/min/kg
same,half-life,[3]; [5],39.6 min
same,Cmax,"[3]; mouse, plasma, iv, 1 mg/kg, I.V. 1 mg/kg, second study, NaF added to EDTA tubes, read-out: peak plasma concentration",70.9 ng/mL
same,concentration at 0.5 h,"[3]; mouse, plasma, iv, 1 mg/kg, plasma, IV 1 mg/kg, EDTA without NaF, 30 minutes, individual mice, read-out: Concentration ENDX PROTAC 9",1.81 ng/mL
same,concentration at 0.5 h,"[3]; mouse, plasma, iv, 1 mg/kg, plasma, IV 1 mg/kg, all data (both IV studies), 30 minutes, read-out: Concentration ENDX PROTAC 9",2.83 ng/mL
same,Tmax,"[3]; mouse, plasma, iv, I.V. 1 mg/kg, samples collected without added NaF",5 min
same,Cmax,"[3]; mouse, plasma, po, 10 mg/kg, oral 10 mg/kg, read-out: average peak plasma concentration",11.1 ng/mL
same,concentration at 0.5 h,"[3]; mouse, plasma, po, 10 mg/kg, plasma, PO 10 mg/kg, 30 minutes, individual mice, read-out: Concentration ENDX PROTAC 9",0.74 ng/mL
same,concentration at 8 h,"[3]; mouse, plasma, po, 10 mg/kg, plasma, PO 10 mg/kg, 480 minutes, individual mice, read-out: Concentration ENDX PROTAC 9",0.08 ng/mL
same,concentration at 0.25 h,"[3]; mouse, plasma, po, 10 mg/kg, plasma, TABLE 7, titled PO pk (10 mg/kg), 15 minutes, individual mice, read-out: Concentration ENDX PROTAC 9",108 ng/mL
same,concentration at 0.5 h,"[3]; mouse, plasma, po, 10 mg/kg, plasma, TABLE 7, titled PO pk (10 mg/kg), 30 minutes, individual mice, read-out: Concentration ENDX PROTAC 9",166 ng/mL
same,concentration at 1 h,"[3]; mouse, plasma, po, 10 mg/kg, plasma, TABLE 7, titled PO pk (10 mg/kg), 60 minutes, individual mice, read-out: Concentration ENDX PROTAC 9",131 ng/mL
same,bioavailability,"[3]; mouse, plasma, oral 10 mg/kg vs IV 1 mg/kg, read-out: Oral bioavailability",8.8%
same,Tmax,"[3]; mouse, plasma, oral 10 mg/kg",60 min
same,Concentration ENDX PROTAC 9,"[3]; plasma, IV 1 mg/kg, EDTA without NaF, 5 minutes, individual mice",49.449 ng/mL and 47.9659 ng/mL and 12.7855 ng/mL
same,Concentration ENDX PROTAC 9,"[3]; plasma, IV 1 mg/kg, EDTA without NaF, 15 minutes, individual mice",44.1034 ng/mL and 9.4992 ng/mL and 7.241 ng/mL
same,Concentration ENDX PROTAC 9,"[3]; plasma, IV 1 mg/kg, EDTA without NaF, 30 minutes, individual mice",1.662 ng/mL
